Data: patent US20220204539A1, “CD73 INHIBITORS” (BioArdis LLC, priority 2019, published 2022)

Legend:
[1] = molecular target: T1, Cell surface CD73 of U87 MG human glioblastoma cells (Homo sapiens, UniProt P21589); assay: CD73 Cellular Assay; format: cell-based; settings: 5000 cells per well, 30 μM AMP substrate, read-out: Potency (IC50, CD73 cellular assay)
T1 construct: Cell surface CD73 catalyzes the conversion of adenosine monophosphate (AMP) to adenosine and inorganic phosphate; endogenous in cells; host or cells: U87 MG human glioblastoma cells
T1 sequence (P21589 27-549): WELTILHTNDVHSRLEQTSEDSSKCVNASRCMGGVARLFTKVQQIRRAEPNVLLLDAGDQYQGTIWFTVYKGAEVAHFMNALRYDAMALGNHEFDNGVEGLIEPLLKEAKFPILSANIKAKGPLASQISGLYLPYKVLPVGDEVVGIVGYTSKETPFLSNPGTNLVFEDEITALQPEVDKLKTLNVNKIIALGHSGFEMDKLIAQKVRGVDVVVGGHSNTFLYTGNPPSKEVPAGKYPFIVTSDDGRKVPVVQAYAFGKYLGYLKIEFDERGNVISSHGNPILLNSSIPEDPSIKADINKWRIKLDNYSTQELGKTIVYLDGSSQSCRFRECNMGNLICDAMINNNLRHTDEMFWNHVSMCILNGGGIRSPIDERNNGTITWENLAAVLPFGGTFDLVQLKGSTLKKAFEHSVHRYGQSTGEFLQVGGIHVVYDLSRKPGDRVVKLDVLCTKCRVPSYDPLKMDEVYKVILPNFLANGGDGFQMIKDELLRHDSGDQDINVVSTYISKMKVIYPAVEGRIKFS
Protocol: Cell surface CD73 catalyzes the conversion of adenosine monophosphate (AMP) to adenosine and inorganic phosphate. U87 MG human glioblastoma cells express high level of CD73. Cells are treated with compounds in a 96-well assay plate and supernatants are collected into a 384-well detection plate. The concentration of inorganic phosphate (Pi) in the supernatants is determined using the phosphate detection reagent, PiColorLock™ (Innova Bioscience, Cat #303-0125) following the manufacturer's instructions.
Briefly, on the day of the assay, U87 MG cells were harvested and resuspended in assay buffer which consisted of 20 mM HEPES, pH=7.4, 137 mM NaCl, 5.4 mM KCl, 1.3 mM CaCl2, 4.2 mM NaHCO3 and 0.1% glucose. To test the effect of compounds on cellular CD73 enzymatic activity, 500 nL/well of compounds dissolved in DMSO were added to a 96-well TC-treated microplate (Corning #3599). Next, 80 μL/well of U87 MG cells in assay buffer were added to assay plate. After 30 minutes of incubation in an atmosphere of 5% CO2 at 37° C., 20 μL/well of 150 μM AMP (Adenosine 5′-monophosphate monohydrate, Sigma, Cat #01930) in assay buffer was added to assay plate. Final assay conditions consisted of 5000 cells per well in 0.5% DMSO and 30 μM AMP substrate. After 50 minutes of incubation in an atmosphere of 5% CO2 at 37° C., 50 μL/well of supernatant was transferred to the 384-well detection plate (Corning® NBS™ 384 well plates, Cat #3640). Meanwhile “Gold mix” was prepared shortly before use by adding 1/100 volume of accelerator to the PiColorLock™ Gold reagent. 12 μL/well of the “Gold mix” was added to detection plate containing 50 μL/well of supernatant and incubated at 25° C. for 5 minutes. 5 μL/well stabilizer was added to the detection plate and incubated at 25° C. for 30 minutes. The absorbance at 635 nm was measured on a Spark 10M instrument (TECAN). The percent (%) inhibition at each concentration of a compound was calculated relative to the OD value in the Max and Min control wells contained within each assay plate. The Max control wells contained cells and substrate as 0% inhibition, and the Min control wells only contained cells as 100% inhibition. The concentrations and percent inhibition values for a test compound are plotted and the concentration of a the compound required to achieve 50% inhibition (IC50) was determined with a four-parameter logistic dose response equation.

[2] = molecular target: T2, Recombinant Human 5′-Nucleotidase (CD73) (Homo sapiens, UniProt P21589); assay: CD73 Enzyme Assay; format: biochemical; settings: human CD73 0.5 nM, AMP 30 μM, PiColorLock phosphate detection; read-out: Potency (IC50, CD73 enzyme assay)
T2 construct: CHO derived CD73 (Trp27-Lys547), with a C-terminal 6-His tag; 6-His (C); purchased R&D 5795-EN; host or cells: CHO
T2 sequence (P21589 27-547): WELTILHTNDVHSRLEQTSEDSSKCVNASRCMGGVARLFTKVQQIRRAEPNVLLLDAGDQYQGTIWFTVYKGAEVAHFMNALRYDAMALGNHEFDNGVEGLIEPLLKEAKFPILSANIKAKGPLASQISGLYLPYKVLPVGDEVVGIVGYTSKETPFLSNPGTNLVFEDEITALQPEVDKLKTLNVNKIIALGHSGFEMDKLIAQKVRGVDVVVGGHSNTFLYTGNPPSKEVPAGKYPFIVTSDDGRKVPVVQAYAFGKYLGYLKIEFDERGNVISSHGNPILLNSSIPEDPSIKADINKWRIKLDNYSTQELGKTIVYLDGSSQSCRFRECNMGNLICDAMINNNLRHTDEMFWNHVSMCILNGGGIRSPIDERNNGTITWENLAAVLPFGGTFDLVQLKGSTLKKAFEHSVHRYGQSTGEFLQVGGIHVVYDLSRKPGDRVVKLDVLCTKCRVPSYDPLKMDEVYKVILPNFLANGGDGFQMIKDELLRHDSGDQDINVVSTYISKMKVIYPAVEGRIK
Source text: Soluble recombinant CD73 catalyzes the conversion of adenosine monophosphate (AMP) to adenosine and inorganic phosphate. The phosphate detection reagent, PiColorLock™ (Innova Bioscience, Cat #303-0125) is based on the change in absorbance of the dye malachite green in the presence of inorganic phosphate (Pi) and this property can be exploited to measure any enzyme that generates Pi. Recombinant Human 5′-Nucleotidase (CD73) (R&D #5795-EN, CHO derived CD73 (Trp27-Lys547), with a C-terminal 6-His tag) was used in the enzymatic assay. This assay was run in a 384-well plate format (Corning® NBS™ 384 well plates, Cat #3640). The basic assay procedure involves two steps: 1) Enzyme reaction: The CD73 enzyme (R&D #5795-EN) is incubated in the presence or absence of compounds. AMP (sigma, cat #01930) is added to start the […] reaction. 2) Detection step: Gold mix is added to the assay system, then stabilizers are added. After incubation the absorbance of the solution is read at OD 635 nm. The recorded OD signal is proportional to the enzyme activity.
Briefly, 25 μl human CD73 (0.5 nM final concentration) in the enzymatic buffer solutions (20 mM Tris, 25 mM NaCl, 1 mM MgCl2, pH 7.5, 0.005% Tween-20) were mixed with various concentrations of the test compound (dissolved in 100% DMSO). These solutions were incubated for 15 min at 25° C., and subsequently 25 μl AMP (30 μM final concentration) was added to start the reaction. The final reaction mixture of enzyme-substrate-compound was incubated for 20 min at 37° C. Meanwhile ‘Gold mix’ was prepared shortly before use by adding 1/100 vol. of accelerator to the PiColorLock™ Gold reagent. 12 μL/well of the ‘Gold mix’ was added to assay plate containing 50 μL enzyme reaction buffer and incubated at 25° C. for 5 min. 5 μL/well stabilizer was added to the assay plate and incubated at 25° C. for 30 min. The absorbance of the well solutions was measured at 635 nm on a Spark 10M instrument (TECAN).
The percent (%) inhibition at each concentration of a compound was calculated relative to the OD value in the Max and Min control wells contained within each assay plate. The Max control wells contained enzyme and substrate as 0% inhibition, and the M control wells only contained substrate without enzyme as 100% inhibition. The concentrations and percent inhibition values for a test compound are plotted and the concentration of the compound required to achieve 50% inhibition (IC50) was determined with a four-parameter logistic dose response equation.

IC50 [1] [nM] | IC50 [2] [nM] | SMILES
< 1 | < 10 | O=P(O)(O)CP(=O)(O)OC[C@H]1O[C@@H](c2cnc3c(NC4CCCC4)nc(Cl)nn23)[C@H](O)[C@@H]1O [Compound 5, (((((2R,3S,4R,1S)-5-(2-chloro-4-(cyclopentylamino)imidazo[2,1-f][1,2,4]triazin-7-yl)-3,4-dihydroxytetrahydrofuran-2-yl)methoxy)(hydroxy)phosphoryl)methyl)phosphonic acid]
< 1 | < 10 | O=P(O)(O)CP(=O)(O)OC[C@H]1O[C@@H](c2cnc3c(NCc4ccccc4)nc(Cl)nn23)[C@H](O)[C@@H]1O [Compound 6, (((((2R,3S,4R,1S)-5-(4-(benzylamino)-2-chloroimidazo[2,1-f][1,2,4]triazin-7-yl)-3,4-dihydroxytetrahydrofuran-2-yl)methoxy)(hydroxy)phosphoryl)methyl)phosphonic Acid]
< 1 | < 10 | CN(c1nc(Cl)nn2c([C@@H]3O[C@H](COP(=O)(O)CP(=O)(O)O)[C@@H](O)[C@H]3O)cnc12)C1CCCC1 [Compound 8, (((((2R,3S,4R,1S)-5-(2-chloro-4-(cyclopentyl(methyl)amino)imidazo[2,1-f][1,2,4]triazin-7-yl)-3,4-dihydroxytetrahydrofuran-2-yl)methoxy)(hydroxy)phosphoryl)methyl)phosphonic acid]
< 1 | < 10 | O=P(O)(O)CP(=O)(O)OC[C@H]1O[C@@H](c2cnc3c(NC4CCc5ccccc54)nc(Cl)nn23)[C@H](O)[C@@H]1O (stereo partly drawn) [Compound 9, (((((2R,3S,4R,1S)-5-(2-chloro-4-((2,3-dihydro-1H-inden-1-yl)amino)imidazo[2,1-f][1,2,4]triazin-7-yl)-3,4-dihydroxytetrahydrofuran-2-yl)methoxy)(hydroxy)phosphoryl)methy)phosphonic acid]
< 1 | < 10 | O=P(O)(O)CP(=O)(O)OC[C@H]1O[C@@H](c2cnc3c(N4CC5CCCC5C4)nc(Cl)nn23)[C@H](O)[C@@H]1O (stereo partly drawn) [Compound 10, (((((2R,3S,4R,1S)-5-(2-chloro-4-(hexahydrocyclopenta[c]pyrrol-2(1H)-yl)imidazo[2,1-f][1,2,4]triazin-7-yl)-3,4-dihydroxytetrahydrofuran-2-yl)methoxy)(hydroxy)phosphoryl)methy)phosphonic acid]
< 1 | < 10 | O=P(O)(O)CP(=O)(O)OC[C@H]1O[C@@H](c2cnc3c(NCc4ccccc4Cl)nc(Cl)nn23)[C@H](O)[C@@H]1O [Compound 11, [({[(2R,3S,4R,5S)-5-(2-chloro-4-{[(2-chlorophenyl)methyl]amino}imidazo[2,1-f][1,2,4]triazin-7-yl)-3,4-dihydroxyoxolan-2-yl]methoxy}(hydroxy)phosphoryl)methyl]phosphonic acid]
< 1 | < 10 | O=P(O)(O)CP(=O)(O)OC[C@H]1O[C@@H](c2cnc3c(NCC4CCOC4)nc(Cl)nn23)[C@H](O)[C@@H]1O (stereo partly drawn) [Compound 12, (((((2R,3S,4R,1S)-5-(2-chloro-4-(((tetrahydrofuran-3-yl)methyl)amino)imidazo[2,1-f][1,2,4]triazin-7-yl)-3,4-dihydroxytetrahydrofuran-2-yl)methoxy)(hydroxy)phosphoryl)methyl) phosphonic Acid]
< 1 | < 10 | O=P(O)(O)CP(=O)(O)OC[C@H]1O[C@@H](c2cnc3c(NC4CCOC4)nc(Cl)nn23)[C@H](O)[C@@H]1O (stereo partly drawn) [Compound 14, [({[(2R,3S,4R,5S)-5-[2-chloro-4-(oxolan-3-ylamino)imidazo[2,1-f][1,2,4]triazin-7-yl]-3,4-dihydroxyoxolan-2-yl]methoxy}(hydroxy)phosphoryl)methyl]phosphonic acid]
< 1 | < 10 | O=P(O)(O)CP(=O)(O)OC[C@H]1O[C@@H](c2coc3c(NCc4ccccc4)nc(Cl)nc23)[C@H](O)[C@@H]1O [Compound 15, [({[(2R,3S,4R,5S)-5-[4-(benzylamino)-2-chlorofuro[3,2-d]pyrimidin-7-yl]-3,4-dihydroxyoxolan-2-yl]methoxy}(hydroxy)phosphoryl)methyl]phosphonic Acid]
1 to 9.9 | 10 to 99 | O=P(O)(O)CP(=O)(O)OC[C@H]1O[C@@H](c2ccc3c(NCc4ccccc4)ncnn23)[C@H](O)[C@@H]1O [Compound 16, (((((2R,3S,4R,1S)-5-(4-(benzylamino)pyrrolo[2,1-f][1,2,4]triazin-7-yl)-3,4-dihydroxytetrahydrofuran-2-yl)methoxy)(hydroxy)phosphoryl)methyl)phosphonic acid]
